Experiments:
[1] = molecular target: Tyrosine-protein kinase ABL1 (Homo sapiens) (UniProt P00519); conditions: Compound concentration 1000.0 nM
[2] = molecular target: Tyrosine-protein kinase Srms (Homo sapiens) (UniProt Q9H3Y6); test: SRMS Invitrogen selectivity data (BI); conditions: Compound concentration 3.0 uM
[3] = molecular target: Serine/threonine-protein kinase PLK1 (Homo sapiens) (UniProt P53350); test: PLK1 Invitrogen selectivity data (BI); conditions: Compound concentration 3.0 uM
[4] = molecular target: T1, Ephrin type-B receptor 1 (Homo sapiens) (UniProt P54762); test: EPHB1 Invitrogen selectivity data (BI); conditions: Compound concentration 3.0 uM
T1 sequence (whole entry): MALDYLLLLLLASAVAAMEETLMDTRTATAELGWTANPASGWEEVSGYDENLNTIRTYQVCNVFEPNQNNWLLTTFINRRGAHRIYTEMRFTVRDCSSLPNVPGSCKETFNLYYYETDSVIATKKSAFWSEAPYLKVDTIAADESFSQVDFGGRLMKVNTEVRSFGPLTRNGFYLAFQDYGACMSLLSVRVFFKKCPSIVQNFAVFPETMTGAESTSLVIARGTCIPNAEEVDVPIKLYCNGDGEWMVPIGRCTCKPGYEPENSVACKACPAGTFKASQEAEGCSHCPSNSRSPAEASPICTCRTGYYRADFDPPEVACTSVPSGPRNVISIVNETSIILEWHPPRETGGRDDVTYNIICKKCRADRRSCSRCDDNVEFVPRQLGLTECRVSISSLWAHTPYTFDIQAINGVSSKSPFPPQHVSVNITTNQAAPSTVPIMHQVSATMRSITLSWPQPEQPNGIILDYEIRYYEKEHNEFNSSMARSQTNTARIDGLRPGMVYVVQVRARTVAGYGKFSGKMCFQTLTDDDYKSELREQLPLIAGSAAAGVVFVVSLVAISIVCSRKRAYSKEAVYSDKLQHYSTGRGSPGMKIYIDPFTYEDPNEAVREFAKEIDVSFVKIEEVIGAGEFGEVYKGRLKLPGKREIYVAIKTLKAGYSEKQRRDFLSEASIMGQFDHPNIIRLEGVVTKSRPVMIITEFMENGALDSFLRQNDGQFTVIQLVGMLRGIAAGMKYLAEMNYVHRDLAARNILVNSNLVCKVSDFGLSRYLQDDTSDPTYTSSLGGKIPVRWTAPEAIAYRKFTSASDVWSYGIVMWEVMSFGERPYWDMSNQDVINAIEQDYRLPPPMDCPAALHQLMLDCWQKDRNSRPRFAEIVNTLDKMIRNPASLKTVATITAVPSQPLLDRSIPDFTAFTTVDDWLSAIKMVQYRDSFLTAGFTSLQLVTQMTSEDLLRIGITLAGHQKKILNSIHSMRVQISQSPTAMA

[5] = molecular target: Casein kinase I isoform gamma-3 (Homo sapiens) (UniProt Q9Y6M4); test: CSNK1G3 Invitrogen selectivity data (BI); conditions: Compound concentration 3.0 uM
Casein kinase I isoform gamma-3 (Homo sapiens), sequence (Q9Y6M4 whole entry, looked up, canonical isoform): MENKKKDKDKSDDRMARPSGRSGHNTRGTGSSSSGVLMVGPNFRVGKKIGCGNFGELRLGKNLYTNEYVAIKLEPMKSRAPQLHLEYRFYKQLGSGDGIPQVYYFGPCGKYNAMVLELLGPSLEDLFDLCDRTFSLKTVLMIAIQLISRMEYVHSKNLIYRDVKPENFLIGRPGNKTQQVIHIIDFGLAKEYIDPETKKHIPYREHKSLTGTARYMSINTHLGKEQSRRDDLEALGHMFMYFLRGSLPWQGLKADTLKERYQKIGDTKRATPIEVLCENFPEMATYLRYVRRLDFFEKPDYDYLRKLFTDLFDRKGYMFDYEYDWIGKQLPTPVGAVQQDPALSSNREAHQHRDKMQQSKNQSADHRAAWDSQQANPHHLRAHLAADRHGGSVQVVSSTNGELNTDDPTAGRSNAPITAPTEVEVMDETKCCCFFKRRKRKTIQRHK

[6] = molecular target: Calcium/calmodulin-dependent protein kinase kinase 1 (Homo sapiens) (UniProt Q8N5S9); test: CAMKK1 Invitrogen selectivity data (BI); conditions: Compound concentration 3.0 uM
[7] = molecular target: Phosphatidylinositol 4-kinase beta (Homo sapiens) (UniProt Q9UBF8); test: PI4KB Invitrogen selectivity data (BI); conditions: Compound concentration 3.0 uM
[8] = molecular target: 72 kDa type IV collagenase (Homo sapiens) (UniProt P08253); test: MMP-2 (H) Cerep selectivity data (BI); conditions: Compound concentration 20.0 uM
[9] = molecular target: Tyrosine-protein kinase Yes (Homo sapiens) (UniProt P07947); test: YES1 Invitrogen selectivity data (BI); conditions: Compound concentration 3.0 uM
[10] = molecular target: Mitogen-activated protein kinase kinase kinase 14 (Homo sapiens) (UniProt Q99558); test: MAP3K14 Invitrogen selectivity data (BI); conditions: Compound concentration 3.0 uM
[11] = molecular target: Tyrosine-protein kinase Fgr (Homo sapiens) (UniProt P09769); test: FGR Invitrogen selectivity data (BI); conditions: Compound concentration 3.0 uM
Tyrosine-protein kinase Fgr (Homo sapiens), sequence (P09769 2-529 limits assumed): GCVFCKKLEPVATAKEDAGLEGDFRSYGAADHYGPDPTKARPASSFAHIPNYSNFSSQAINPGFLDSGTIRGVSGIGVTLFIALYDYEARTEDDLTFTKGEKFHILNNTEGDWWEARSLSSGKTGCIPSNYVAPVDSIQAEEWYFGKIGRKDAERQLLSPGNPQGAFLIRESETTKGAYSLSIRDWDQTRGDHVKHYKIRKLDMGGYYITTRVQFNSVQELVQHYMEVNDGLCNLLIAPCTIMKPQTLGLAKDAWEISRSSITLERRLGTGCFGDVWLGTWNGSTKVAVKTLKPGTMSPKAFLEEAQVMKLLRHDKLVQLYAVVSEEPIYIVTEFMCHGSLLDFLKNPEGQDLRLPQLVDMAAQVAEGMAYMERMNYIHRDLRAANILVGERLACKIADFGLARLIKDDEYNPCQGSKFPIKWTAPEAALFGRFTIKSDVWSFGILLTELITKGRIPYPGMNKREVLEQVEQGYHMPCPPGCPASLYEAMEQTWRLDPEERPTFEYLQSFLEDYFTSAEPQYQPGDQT

[12] = molecular target: Dual specificity protein kinase CLK2 (Homo sapiens) (UniProt P49760); test: CLK2 Invitrogen selectivity data (BI); conditions: Compound concentration 3.0 uM
[13] = molecular target: Glucagon receptor (Homo sapiens) (UniProt P47871); test: GLUCAGONH_AGON Cerep selectivity data (BI); conditions: filed as agonist, Compound concentration 20.0 uM
[14] = molecular target: MAP kinase-interacting serine/threonine-protein kinase 2 (Homo sapiens) (UniProt Q9HBH9); test: MKNK2 (MNK2) Invitrogen selectivity data (BI); conditions: Compound concentration 3.0 uM
MAP kinase-interacting serine/threonine-protein kinase 2 (Homo sapiens), sequence (Q9HBH9 whole entry, looked up): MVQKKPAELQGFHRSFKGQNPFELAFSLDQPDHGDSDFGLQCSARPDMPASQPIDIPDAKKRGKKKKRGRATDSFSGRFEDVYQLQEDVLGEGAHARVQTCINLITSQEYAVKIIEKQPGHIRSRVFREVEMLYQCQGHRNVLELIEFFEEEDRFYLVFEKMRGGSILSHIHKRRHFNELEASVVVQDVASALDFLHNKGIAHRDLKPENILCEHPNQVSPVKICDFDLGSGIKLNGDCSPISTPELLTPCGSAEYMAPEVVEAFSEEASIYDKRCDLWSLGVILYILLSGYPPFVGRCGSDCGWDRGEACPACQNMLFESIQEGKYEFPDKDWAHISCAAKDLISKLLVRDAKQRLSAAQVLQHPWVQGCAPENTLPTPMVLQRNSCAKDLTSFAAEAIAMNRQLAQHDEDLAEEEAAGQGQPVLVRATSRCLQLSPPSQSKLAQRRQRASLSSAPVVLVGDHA

[15] = molecular target: Sodium/potassium-transporting ATPase subunit alpha-1 (Sus scrofa) (UniProt P05024); test: ATPASE(NA/K) Cerep selectivity data (BI); conditions: Compound concentration 20.0 uM
[16] = molecular target: 3-phosphoinositide-dependent protein kinase 1 (Homo sapiens) (UniProt O15530); test: PDK1DIRECT Invitrogen selectivity data (BI); conditions: Compound concentration 3.0 uM
3-phosphoinositide-dependent protein kinase 1 (Homo sapiens), sequence (O15530 whole entry, looked up): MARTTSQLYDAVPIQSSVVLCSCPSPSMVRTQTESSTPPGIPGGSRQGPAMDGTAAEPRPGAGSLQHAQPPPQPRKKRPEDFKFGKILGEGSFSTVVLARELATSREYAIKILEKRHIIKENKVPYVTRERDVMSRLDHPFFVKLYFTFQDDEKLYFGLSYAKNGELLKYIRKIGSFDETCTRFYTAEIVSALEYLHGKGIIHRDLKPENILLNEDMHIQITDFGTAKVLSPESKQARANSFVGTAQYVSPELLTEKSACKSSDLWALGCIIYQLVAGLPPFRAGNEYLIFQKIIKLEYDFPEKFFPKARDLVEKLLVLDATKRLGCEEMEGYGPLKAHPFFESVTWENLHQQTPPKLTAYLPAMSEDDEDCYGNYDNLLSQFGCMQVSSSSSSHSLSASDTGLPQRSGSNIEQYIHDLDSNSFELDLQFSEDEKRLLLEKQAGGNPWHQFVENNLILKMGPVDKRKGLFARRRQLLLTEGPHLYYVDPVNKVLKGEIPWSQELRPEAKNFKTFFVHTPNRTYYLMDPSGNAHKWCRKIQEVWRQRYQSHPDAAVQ

[17] = molecular target: T2, Serine/threonine-protein kinase BRSK1 (Homo sapiens) (UniProt Q8TDC3); test: BRSK1 Invitrogen selectivity data (BI); conditions: Compound concentration 3.0 uM
T2 sequence (whole entry): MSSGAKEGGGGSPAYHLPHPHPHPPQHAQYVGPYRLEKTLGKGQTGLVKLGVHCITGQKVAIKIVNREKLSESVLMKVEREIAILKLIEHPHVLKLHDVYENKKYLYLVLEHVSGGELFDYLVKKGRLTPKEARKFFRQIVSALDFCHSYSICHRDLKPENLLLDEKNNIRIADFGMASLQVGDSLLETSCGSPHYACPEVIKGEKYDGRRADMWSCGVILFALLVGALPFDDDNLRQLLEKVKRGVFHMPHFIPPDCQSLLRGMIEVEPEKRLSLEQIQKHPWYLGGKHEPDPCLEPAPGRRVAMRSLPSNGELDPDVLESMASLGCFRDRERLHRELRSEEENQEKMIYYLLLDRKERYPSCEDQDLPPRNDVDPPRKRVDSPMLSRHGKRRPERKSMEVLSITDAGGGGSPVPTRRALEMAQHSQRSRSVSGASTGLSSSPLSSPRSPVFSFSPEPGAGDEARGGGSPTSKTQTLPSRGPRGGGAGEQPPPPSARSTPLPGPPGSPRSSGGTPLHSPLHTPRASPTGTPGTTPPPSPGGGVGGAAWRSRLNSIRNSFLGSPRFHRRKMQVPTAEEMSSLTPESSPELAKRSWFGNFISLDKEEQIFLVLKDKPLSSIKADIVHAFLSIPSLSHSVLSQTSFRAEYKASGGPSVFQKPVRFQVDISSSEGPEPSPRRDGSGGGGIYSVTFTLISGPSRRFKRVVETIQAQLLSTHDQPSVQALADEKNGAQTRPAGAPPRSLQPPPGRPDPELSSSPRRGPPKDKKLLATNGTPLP

[18] = molecular target: Sodium-dependent noradrenaline transporter (Homo sapiens) (UniProt P23975); test: NETRANS/H Eurofins-Panlabs selectivity data (BI); conditions: Compound concentration 10.0 uM
[19] = molecular target: Prostaglandin G/H synthase 1 (Homo sapiens) (UniProt P23219); test: COX1_HU Cerep selectivity data (BI); conditions: Compound concentration 20.0 uM
Prostaglandin G/H synthase 1 (Homo sapiens), sequence (P23219 whole entry): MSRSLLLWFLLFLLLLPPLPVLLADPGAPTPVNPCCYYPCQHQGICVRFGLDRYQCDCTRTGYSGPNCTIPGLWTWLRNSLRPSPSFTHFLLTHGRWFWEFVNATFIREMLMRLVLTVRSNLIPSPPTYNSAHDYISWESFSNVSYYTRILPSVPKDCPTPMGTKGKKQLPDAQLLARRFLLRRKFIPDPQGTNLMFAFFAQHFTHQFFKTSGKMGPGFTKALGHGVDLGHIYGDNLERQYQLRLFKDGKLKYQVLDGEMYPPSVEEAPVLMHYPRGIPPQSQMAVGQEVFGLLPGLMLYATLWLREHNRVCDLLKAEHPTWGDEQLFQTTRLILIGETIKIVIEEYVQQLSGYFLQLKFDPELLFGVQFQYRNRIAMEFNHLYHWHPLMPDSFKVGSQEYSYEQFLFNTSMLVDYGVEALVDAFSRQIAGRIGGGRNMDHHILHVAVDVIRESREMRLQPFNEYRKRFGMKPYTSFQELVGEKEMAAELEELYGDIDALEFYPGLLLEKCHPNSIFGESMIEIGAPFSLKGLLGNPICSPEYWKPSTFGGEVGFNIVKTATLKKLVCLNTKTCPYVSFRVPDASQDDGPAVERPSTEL

[20] = molecular target: Nicotinic acetylcholine receptor alpha-1/beta-1 (Homo sapiens) (UniProt P02708+P11230); test: NMUSCLEH_ANTAG Cerep selectivity data (BI); type: protein-complex assay; conditions: filed as antagonist, Compound concentration 20.0 uM
[21] = molecular target: Serine/threonine-protein kinase MARK1 (Homo sapiens) (UniProt Q9P0L2); test: MARK1 Invitrogen selectivity data (BI); conditions: Compound concentration 3.0 uM

Measured: residual activity

Tyrosine-protein kinase ABL1 (Homo sapiens), sequence (P00519 whole entry): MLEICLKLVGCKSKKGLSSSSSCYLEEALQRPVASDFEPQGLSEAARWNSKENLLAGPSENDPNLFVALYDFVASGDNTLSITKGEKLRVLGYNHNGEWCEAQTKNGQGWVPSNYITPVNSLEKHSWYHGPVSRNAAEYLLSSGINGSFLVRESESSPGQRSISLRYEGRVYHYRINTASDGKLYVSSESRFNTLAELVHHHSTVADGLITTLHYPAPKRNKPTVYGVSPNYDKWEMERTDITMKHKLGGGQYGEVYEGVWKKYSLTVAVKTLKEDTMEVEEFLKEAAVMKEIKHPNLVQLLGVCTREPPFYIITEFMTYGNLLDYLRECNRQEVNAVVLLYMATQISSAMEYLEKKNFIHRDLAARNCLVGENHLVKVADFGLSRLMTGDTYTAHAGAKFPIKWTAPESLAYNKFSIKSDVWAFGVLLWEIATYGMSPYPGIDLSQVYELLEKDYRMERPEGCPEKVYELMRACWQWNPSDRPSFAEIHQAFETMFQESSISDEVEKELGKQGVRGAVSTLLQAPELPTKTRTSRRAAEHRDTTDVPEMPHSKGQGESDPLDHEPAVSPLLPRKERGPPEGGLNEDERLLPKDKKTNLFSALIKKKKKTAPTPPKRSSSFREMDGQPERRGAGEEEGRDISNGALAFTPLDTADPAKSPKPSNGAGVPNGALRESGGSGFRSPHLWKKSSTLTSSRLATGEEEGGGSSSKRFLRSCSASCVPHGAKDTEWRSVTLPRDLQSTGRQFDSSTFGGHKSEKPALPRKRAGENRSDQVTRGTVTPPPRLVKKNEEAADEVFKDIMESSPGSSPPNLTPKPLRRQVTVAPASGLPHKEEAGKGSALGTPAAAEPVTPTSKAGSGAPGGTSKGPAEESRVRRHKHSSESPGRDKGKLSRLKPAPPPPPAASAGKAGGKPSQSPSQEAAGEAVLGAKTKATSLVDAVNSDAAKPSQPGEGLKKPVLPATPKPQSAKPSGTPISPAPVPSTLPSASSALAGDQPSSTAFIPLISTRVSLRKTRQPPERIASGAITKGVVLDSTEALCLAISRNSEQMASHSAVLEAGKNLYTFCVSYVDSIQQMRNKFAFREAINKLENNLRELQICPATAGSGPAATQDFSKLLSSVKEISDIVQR
Serine/threonine-protein kinase PLK1 (Homo sapiens), sequence (P53350 whole entry): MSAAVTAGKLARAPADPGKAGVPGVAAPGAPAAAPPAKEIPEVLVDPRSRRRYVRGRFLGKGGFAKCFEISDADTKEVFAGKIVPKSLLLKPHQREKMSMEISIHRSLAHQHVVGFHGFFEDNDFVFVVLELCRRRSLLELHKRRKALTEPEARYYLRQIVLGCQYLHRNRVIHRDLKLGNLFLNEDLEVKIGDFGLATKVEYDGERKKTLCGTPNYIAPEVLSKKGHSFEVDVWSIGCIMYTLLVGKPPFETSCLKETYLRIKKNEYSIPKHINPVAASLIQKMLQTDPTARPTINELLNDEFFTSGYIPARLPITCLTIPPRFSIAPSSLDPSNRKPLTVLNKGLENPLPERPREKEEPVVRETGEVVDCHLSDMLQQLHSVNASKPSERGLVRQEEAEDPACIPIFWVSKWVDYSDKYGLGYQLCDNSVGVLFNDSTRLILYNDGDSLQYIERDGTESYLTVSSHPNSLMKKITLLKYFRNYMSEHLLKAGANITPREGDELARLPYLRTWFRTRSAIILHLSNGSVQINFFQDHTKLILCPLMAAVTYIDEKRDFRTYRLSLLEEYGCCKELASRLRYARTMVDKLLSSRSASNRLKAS
Tyrosine-protein kinase Srms (Homo sapiens), sequence (Q9H3Y6 whole entry): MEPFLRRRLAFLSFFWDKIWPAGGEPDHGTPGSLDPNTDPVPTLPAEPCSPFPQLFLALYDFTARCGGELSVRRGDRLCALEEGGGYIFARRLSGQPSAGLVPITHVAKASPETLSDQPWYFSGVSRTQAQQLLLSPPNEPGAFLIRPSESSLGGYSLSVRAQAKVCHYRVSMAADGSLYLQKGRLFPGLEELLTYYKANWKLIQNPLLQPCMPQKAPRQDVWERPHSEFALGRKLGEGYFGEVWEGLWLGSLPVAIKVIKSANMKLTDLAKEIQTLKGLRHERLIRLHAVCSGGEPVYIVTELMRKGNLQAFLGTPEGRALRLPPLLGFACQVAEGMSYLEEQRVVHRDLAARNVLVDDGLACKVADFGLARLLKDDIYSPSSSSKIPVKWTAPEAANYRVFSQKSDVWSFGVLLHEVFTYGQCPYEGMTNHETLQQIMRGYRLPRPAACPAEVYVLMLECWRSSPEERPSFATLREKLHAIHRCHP

CN(C)C(=O)Cn1cc(-c2nc(C3(c4ccc(-c5cnc(N)nc5)cc4)CC3)no2)cn1 [BI 0153]
inactive: [1] 100%

CN(C)C(=O)Cn1cc(-c2nc([C@@](C)(c3ccc(-c4cnc(N)nc4)cc3)C3CC3)no2)cn1 [BI 665915]
inactive: [2] 98.5% | [3] 97% | [4] 93% | [5] 99% | [6] 102% | [7] 95% | [8] 96% | [9] 88.5% | [10] 98% | [11] 90.5% | [12] 95.5% | [13] 107% | [14] 99% | [15] 99% | [16] 97% | [17] 90.5% | [18] 103% | [19] 62% | [20] 120% | [21] 98%

Source: ChEMBL document CHEMBL4507276 (2021)
